From article PMC7381538, “Broad spectrum antibiotic-degrading metallo-β-lactamases are phylogenetically diverse” (Protein & Cell, 2020)

Assays:
SPR-1trunc = SPR-1trunc (Serratia proteamaculans, UniProt Z9GZR1QZ95); type: biochemical; conditions: beta-lactam substrate and mode only in supplement
SER-1trunc = type: biochemical; conditions: beta-lactam substrate and mode only in supplement

Chain of SPR-1trunc (Z9GZR1QZ95 50-298 limits assumed): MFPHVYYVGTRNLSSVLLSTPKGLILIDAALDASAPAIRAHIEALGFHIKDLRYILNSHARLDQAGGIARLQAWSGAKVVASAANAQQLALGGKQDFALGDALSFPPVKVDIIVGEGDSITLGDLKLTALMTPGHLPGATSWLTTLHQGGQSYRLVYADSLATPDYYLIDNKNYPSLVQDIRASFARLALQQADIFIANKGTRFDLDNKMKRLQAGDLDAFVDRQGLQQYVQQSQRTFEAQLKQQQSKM

O=C(O)[C@H]1/C(=C/CO)O[C@@H]2CC(=O)N21 [CA, clavulanic acid]
Ki (SPR-1trunc): 201 µM | Ki (SER-1trunc): 290 µM
